Reference: PubChem BioAssay AID2060502 (Molecular Pharmacology Branch, DTP, NCI, 2025)

System: 885724-159-R-J1-PDC complex spheroid viability
Assay: Anticancer human tumor 885724-159-R-J1-PDC patient-derived pancreatic adenocarcinoma cell line growth inhibition [GQUAD]
Conditions: for IC50: curve of first compound; for viability, T/C: stronger effect = lower value
In short: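 Tumor cells were grown as complex spheroids with HUVEC endothelial cells and mesenchymal stem cells as stroma. G-quadruplex stabilizers were combined with targeted agents over half-log dilutions from near the clinical Cmax, or from 10 microM.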

[1] = second compound 0.0316 µM, first compound 0.000999 µM
[2] = second compound 0.0316 µM, first compound 0.00316 µM
[3] = second compound 0.0316 µM, first compound 0.00999 µM
[4] = second compound 0.0316 µM, first compound 0.0316 µM
[5] = second compound 0.0316 µM, first compound 0.0999 µM
[6] = second compound 0.0316 µM, first compound 0.316 µM
[7] = second compound 0.1 µM, first compound 0.000999 µM
[8] = second compound 0.1 µM, first compound 0.00316 µM
[9] = second compound 0.1 µM, first compound 0.00999 µM
[10] = second compound 0.1 µM, first compound 0.0316 µM
[11] = second compound 0.1 µM, first compound 0.0999 µM
[12] = second compound 0.1 µM, first compound 0.316 µM
[13] = second compound 0.316 µM, first compound 0.000999 µM
[14] = second compound 0.316 µM, first compound 0.00316 µM
[15] = second compound 0.316 µM, first compound 0.00999 µM
[16] = second compound 0.316 µM, first compound 0.0316 µM
[17] = second compound 0.316 µM, first compound 0.0999 µM
[18] = second compound 0.316 µM, first compound 0.316 µM
[19] = second compound 1 µM, first compound 0.000999 µM
[20] = second compound 1 µM, first compound 0.00316 µM
[21] = second compound 1 µM, first compound 0.00999 µM
[22] = second compound 1 µM, first compound 0.0316 µM
[23] = second compound 1 µM, first compound 0.0999 µM
[24] = second compound 1 µM, first compound 0.316 µM
[25] = second compound 3.16 µM, first compound 0.000999 µM
[26] = second compound 3.16 µM, first compound 0.00316 µM
[27] = second compound 3.16 µM, first compound 0.00999 µM
[28] = second compound 3.16 µM, first compound 0.0316 µM
[29] = second compound 3.16 µM, first compound 0.0999 µM
[30] = second compound 3.16 µM, first compound 0.316 µM
[31] = second compound 10 µM, first compound 0.000999 µM
[32] = second compound 10 µM, first compound 0.00316 µM
[33] = second compound 10 µM, first compound 0.00999 µM
[34] = second compound 10 µM, first compound 0.0316 µM
[35] = second compound 10 µM, first compound 0.0999 µM
[36] = second compound 10 µM, first compound 0.316 µM
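Further: spheroids exposed to agents for seven days before readout.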
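Wherever viability, T/C is given: percent of vehicle control viability where 100% = DMSO wells.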

## CC[C@@]1(O)C(=O)OCc2c1cc1n(c2=O)Cc2cc3c(CN(C)C)c(O)ccc3nc2-1 + CN(C)c1ccc(Nc2c3ccc(NC(=O)CCN4CCCC4)cc3nc3cc(NC(=O)CCN4CCCC4)ccc23)cc1
Second compound 0.0316 µM
  IC50: > 316 nM
Second compound 0.1 µM
  IC50: > 316 nM
Second compound 0.316 µM
  IC50: > 316 nM
Second compound 1 µM
  IC50: > 316 nM
Second compound 3.16 µM
  IC50: > 316 nM
Second compound 10 µM
  IC50: > 316 nM
[1]
  viability, T/C: 100%
[2]
  viability, T/C: 93.2%
[3]
  viability, T/C: 97.2%
[4]
  viability, T/C: 93.6%
[5]
  viability, T/C: 76.7%
[6]
  viability, T/C: 67.7%
[7]
  viability, T/C: 95.9%
[8]
  viability, T/C: 98.6%
[9]
  viability, T/C: 100%
[10]
  viability, T/C: 84.2%
[11]
  viability, T/C: 78%
[12]
  viability, T/C: 67.2%
[13]
  viability, T/C: 78.5%
[14]
  viability, T/C: 86.1%
[15]
  viability, T/C: 83.2%
[16]
  viability, T/C: 82.1%
[17]
  viability, T/C: 89.6%
[18]
  viability, T/C: 63.9%
[19]
  viability, T/C: 76.4%
[20]
  viability, T/C: 82.3%
[21]
  viability, T/C: 76.9%
[22]
  viability, T/C: 65.4%
[23]
  viability, T/C: 87.2%
[24]
  viability, T/C: 62.4%
[25]
  viability, T/C: 81.3%
[26]
  viability, T/C: 70.5%
[27]
  viability, T/C: 74.8%
[28]
  viability, T/C: 66.3%
[29]
  viability, T/C: 67.9%
[30]
  viability, T/C: 51.6%
[31]
  viability, T/C: 89.7%
[32]
  viability, T/C: 87.5%
[33]
  viability, T/C: 77.3%
[34]
  viability, T/C: 79.8%
[35]
  viability, T/C: 73.7%
[36]
  viability, T/C: 52.4%

## COc1ccc([C@@H](O)c2cc(-c3ncnc4cc(N5CCOCC5)ccc34)c(F)cc2Cl)nn1 + CN(C)c1ccc(Nc2c3ccc(NC(=O)CCN4CCCC4)cc3nc3cc(NC(=O)CCN4CCCC4)ccc23)cc1
Second compound 0.0316 µM
  IC50: 6350 nM
Second compound 0.1 µM
  IC50: 4790 nM
Second compound 0.316 µM
  IC50: 5210 nM
Second compound 1 µM
  IC50: 3020 nM
Second compound 3.16 µM
  IC50: 3140 nM
Second compound 10 µM
  IC50: 2730 nM
[4]
  viability, T/C: 88.5%
Second compound 0.0316 µM, first compound 0.1 µM
  viability, T/C: 89%
[6]
  viability, T/C: 79.8%
Second compound 0.0316 µM, first compound 1 µM
  viability, T/C: 85.3%
Second compound 0.0316 µM, first compound 3.16 µM
  viability, T/C: 58.4%
Second compound 0.0316 µM, first compound 10 µM
  viability, T/C: 44.6%
[10]
  viability, T/C: 95.7%
Second compound 0.1 µM, first compound 0.1 µM
  viability, T/C: 90.5%
[12]
  viability, T/C: 95.7%
Second compound 0.1 µM, first compound 1 µM
  viability, T/C: 73.5%
Second compound 0.1 µM, first compound 3.16 µM
  viability, T/C: 59%
Second compound 0.1 µM, first compound 10 µM
  viability, T/C: 36.9%
[16]
  viability, T/C: 89.3%
Second compound 0.316 µM, first compound 0.1 µM
  viability, T/C: 82.3%
[18]
  viability, T/C: 79.2%
Second compound 0.316 µM, first compound 1 µM
  viability, T/C: 70.7%
Second compound 0.316 µM, first compound 3.16 µM
  viability, T/C: 62.8%
Second compound 0.316 µM, first compound 10 µM
  viability, T/C: 36.3%
[22]
  viability, T/C: 78.9%
Second compound 1 µM, first compound 0.1 µM
  viability, T/C: 84.1%
[24]
  viability, T/C: 82.7%
Second compound 1 µM, first compound 1 µM
  viability, T/C: 70.2%
Second compound 1 µM, first compound 3.16 µM
  viability, T/C: 49.6%
Second compound 1 µM, first compound 10 µM
  viability, T/C: 30.2%
[28]
  viability, T/C: 71.6%
Second compound 3.16 µM, first compound 0.1 µM
  viability, T/C: 70.9%
[30]
  viability, T/C: 73.7%
Second compound 3.16 µM, first compound 1 µM
  viability, T/C: 60.4%
Second compound 3.16 µM, first compound 3.16 µM
  viability, T/C: 50.9%
Second compound 3.16 µM, first compound 10 µM
  viability, T/C: 29.6%
[34]
  viability, T/C: 72.9%
Second compound 10 µM, first compound 0.1 µM
  viability, T/C: 81.5%
[36]
  viability, T/C: 69.5%
Second compound 10 µM, first compound 1 µM
  viability, T/C: 62.2%
Second compound 10 µM, first compound 3.16 µM
  viability, T/C: 49%
Second compound 10 µM, first compound 10 µM
  viability, T/C: 25.2%

## Cn1ncnc1[C@H]1c2n[nH]c(=O)c3cc(F)cc(c23)N[C@@H]1c1ccc(F)cc1 + CN(C)c1ccc(Nc2c3ccc(NC(=O)CCN4CCCC4)cc3nc3cc(NC(=O)CCN4CCCC4)ccc23)cc1
Second compound 0.0316 µM
  IC50: > 316 nM
Second compound 0.1 µM
  IC50: > 316 nM
Second compound 0.316 µM
  IC50: > 316 nM
Second compound 1 µM
  IC50: > 316 nM
Second compound 3.16 µM
  IC50: > 316 nM
Second compound 10 µM
  IC50: > 316 nM
[1]
  viability, T/C: 99%
[2]
  viability, T/C: 96.7%
[3]
  viability, T/C: 98.9%
[4]
  viability, T/C: 107%
[5]
  viability, T/C: 78.5%
[6]
  viability, T/C: 84.9%
[7]
  viability, T/C: 101%
[8]
  viability, T/C: 112%
[9]
  viability, T/C: 112%
[10]
  viability, T/C: 93.1%
[11]
  viability, T/C: 96%
[12]
  viability, T/C: 88.3%
[13]
  viability, T/C: 103%
[14]
  viability, T/C: 96.2%
[15]
  viability, T/C: 97.3%
[16]
  viability, T/C: 86%
[17]
  viability, T/C: 97.2%
[18]
  viability, T/C: 82.1%
[19]
  viability, T/C: 101%
[20]
  viability, T/C: 75.7%
[21]
  viability, T/C: 85.8%
[22]
  viability, T/C: 73.4%
[23]
  viability, T/C: 76.7%
[24]
  viability, T/C: 76.2%
[25]
  viability, T/C: 86.4%
[26]
  viability, T/C: 79%
[27]
  viability, T/C: 76%
[28]
  viability, T/C: 76.5%
[29]
  viability, T/C: 81.6%
[30]
  viability, T/C: 75.6%
[31]
  viability, T/C: 67.3%
[32]
  viability, T/C: 85.9%
[33]
  viability, T/C: 78%
[34]
  viability, T/C: 74.2%
[35]
  viability, T/C: 75.8%
[36]
  viability, T/C: 77%
